From US4952580A, “Pesticidal polyhaloalkene derivatives” (priority 1988, dated 1990) come the findings set out here.

One test relates to stunt nematode. Kind of test: Stunt Nematode Test. Type of test: in vivo. The procedure:
(§1) Compounds of this invention were tested as follows for nematicidal and anthelmintic activity as dust formulations (initial and residual activity) and as acetone/water formulations (systemic activity). The formulations are described above.
The procedure was substantially the same as in the […] seedling, with subsequent inoculation of the soil with combined larvae and adult stunt nematodes. The samples were evaulated approximately four weeks after infestation. […] "Percent control" means the difference between average population counts between untreated and treated samples, divided by average population count of untreated sample, multiplied by 100.

The test system of test [1] is root-knot nematode (Meloidogyne incognita). Kind of test: Initial Root-Knot Nematicidal Activity. Type of test: in vivo. The settings on record: 336 h, read-out: Percent Control; for pest or weed control at 1.25 ppm: Table 2, Application Rate 1.25 ppm. As for the experimental part:
as §1
The activity against root-knot nematode (Meloidogyne incognita) was determined by incorporating the compound of the invention in nematode infested soil at rates in the range of 10 ppm to 0.078 ppm of compound. Several tomato or cucumber seedlings were planted in the nematode infested soil. Two weeks after planting the test pots were evaluated to ascertain the degree of galling (swelling) on the roots of the plants, indicating the control provided by the test chemical.
The results expressed as precent control (determined by knot index) are set forth as averages in Table 2 (appended). Knot index is a numerical designation assigned at evaluation, having the following meanings:
Percent control is related to knot index as follows:
When the Knot Index is between 0 and 1 it is further subdivided as follows to indicate how close the percent control is to 75% or 100%: […]

The next test deals with lesion nematode. Kind of test: Lesion Nematode Test. The settings on record: read-out: Percent Control. Type of test: in vivo. The procedure:
as §1
The procedure was substantially the same as in the stunt nematode test described above except that pea seedlings were used. The results (Table 5 appended) show good control with many of the compounds at the application rates tested as compared with untreated samples (no control). "Percent Control" is defined as follows: [formula]

Test [2] relates to root-knot nematode. Briefly: Soil Mobility against root-knot nematode. Type of test: in vivo, Meloidogyne incognita. To be noted: 336 h. The procedure: as §1
The ability of nematicidal compounds of the invention to move through nematode-infested soil […] infested soil, and subsequently eluting the soil with 15 cm of water (equivalent to 15 cm of rainfall) into a series of two or more pots of untreated, but nematode-infested, soil. Specifically, the pots were 8 cm diameter plastic pots containing a 10 cm^3 layer of sand over a coarse grade filter paper disc. Sufficient soil was placed over the sand to fill the pots, and a second filter paper disc was placed over the soil. Each test compound-treated pot was nested over a series of two or more pots containing untreated, but nematode-infested soil, also containing sand filter paper discs as described for the treated soil pots. Fifteen cm of water was slowly dripped into the top pots and the pots were allowed to drain for 16-18 hours to remove excess water. The top filter of each pot was then removed and the pots were planted with a cucumber or tomato seedling. […] "Knot Index" and "Percent Control" are as defined in the initial root-knot nematode tests above.

The subject of test [3] is root-knot nematode. Briefly: Residual Root-Knot Nematicidal Activity. Type of test: in vivo, Meloidogyne incognita. To be noted: Table 3a, 5% dust, 5 ppm, read-out: Percent Control. The procedure:
as §1
The ability of nematicidal compounds of the invention to control root-knot nematode infestations in soil over a period of time after treatment was evaluated. Dust formulations of test compound (5%) were incorporated into soil samples at test compound rates of 5 and 10 ppm. Subsequently, the treated soil samples were inoculated with nematode inoculum at weekly intervals, and Knot Index and Percent Control determined on seedlings planted in the soil samples. Specifically, soil treated with test compound was placed in 7.6 cm diameter fiber pots and stored in a greenhouse. At one, two and four weeks post-treatment, the appropriate number of pots was infested with root-knot nematode eggs and larvae. A cucumber or tomato seedling was planted in each pot and evaluated approximately two weeks after the soil infestation to obtain the test results reported in Tables 3 and 3a appended.

Another test concerns Caenorhabditis elegans. Kind of test: C. Elegans Nematode Screening Test and Evaluation (in-vitro). The settings on record: Caenorhabditis elegans. As for the experimental part: This in-vitro test using the free-living nematode Caenorhabditis elegans, is a modification of the assay developed by Simpkin and Coles, J. Chem. Tech. […] One milliliter of a test medium consisting of 5 mg ampicillin, 10,000 units of mycostatin and 10 ml of a dense suspension of Escherichia coli per 100 ml of a buffer solution, was pipetted into each well of a 24-well microtiter plate. The candidate nematicide, suspended at the appropriate concentration in dimethylsulfoxide, was added to the wells in […] volumes. Each rate of application was replicated two to three times. After thorough mixing of the contents of each well, 50 to 100 μl of a nematode suspension in a buffer was added so that each well received 10-15 nematodes. After the nematodes were added, the microtiter plates were incubated at 20° C. for 5-6 days.
The effect of the candidate nematicide on the survival and the reproduction of C. elegans was then evaluated by comparison of the level of population developed in the treated wells with that in untreated wells. Specific effects on population development, such as reduced egg hatch or molting disruption, were noted if they were evident.

Setting [4] is: Table 2, Application Rate 0.625 ppm.
Setting [5] is: 672 h, Table 4a; rate 5 ppm; read-out: Percent Control.
The mark [6] stands for this setting: Table 7a, 5% dust, 5 ppm, BOTTOM container, read-out: Percent Control.
Setting [7] is: Table 7a, 5% dust, 5 ppm, MIDDLE container, read-out: Percent Control.
Where [8] appears, read: Table 7a, 5% dust, 5 ppm, TOP container, read-out: Percent Control.
Setting [9] is: 168 h, inoculation 1 week post-treatment.
Setting [10] is: 336 h, inoculation 2 weeks post-treatment.
Where [11] appears, read: 672 h, inoculation 4 weeks post-treatment.
Setting [12] is: Table 2, Application Rate 0.312 ppm.
[13] abbreviates: Table 2, Application Rate 2.5 ppm.
Where [14] appears, read: read-out: Percent Control, Table 7a, 5% dust, 5 ppm, BOTTOM container.

Read-outs that look alike come from different tables or passages of the source.

For `FC(F)=C(F)CCN=C=S` [Compound 6, (3,4,4-trifluoro-3-butenyl) isothiocyanate], the pest or weed control at 5 ppm in the test with stunt nematode (672 h, Table 4; rate 5 ppm; read-out: Percent Control) was determined as 51%. In test [1], the pest or weed control at 2.5 ppm turned out to be 38%, the pest or weed control at 5 ppm is 78% and the pest or weed control at 10 ppm was found to be 100%.

Consider `FC(F)=C(F)CCSc1cccs1` [Compound 10, 2-(3,4,4-trifluoro-3-butenylthio)thiopene], for which the pest or weed control at 2.5 ppm with lesion nematode was 33%. Also, in test [1] (setting [4]), the pest or weed control at 0.625 ppm is 63%. Further, in test [1], the pest or weed control at 1.25 ppm was found to be 81% and the pest or weed control at 2.5 ppm was determined as 95%. The pest or weed control at 5 ppm in test [1] (Table 2, Application Rate 5.0 ppm) turned out to be 99%.

`N#CCCSc1nnc(SCCC(F)=C(F)F)s1` [Compound 28, 2-(2-cyanoethylthio)-5-(3,4,4-trifluoro-3-butenylthio)-1,3,4-thiadiazole]: the pest or weed control at 5 ppm is 38% in the test on stunt nematode (setting [5]); 68% in the test on root-knot nematode [2] (setting [6]); 83% in the test with root-knot nematode [2] (setting [7]); 68% with root-knot nematode [2] (setting [8]); 100% in the test with root-knot nematode [3] (setting [9]); 100% in the test on root-knot nematode [3] (setting [10]). Moreover, the pest or weed control at 5 ppm with root-knot nematode [3] (setting [11]) came to 8%. Also, the pest or weed control at 2.5 ppm is 45% in the test on lesion nematode (Table 5, rate 2.5 ppm) and 100% in test [1] (setting [13]). Moreover, the pest or weed control at 0.312 ppm in test [1] (setting [12]) is 81%. Further, in test [1] (setting [4]), the pest or weed control at 0.625 ppm was 86%. Moreover, the pest or weed control at 1.25 ppm in test [1] was 98%.

Take `CCCSc1nnc(SCCC(F)=C(F)F)s1` [Compound 29, 2-propylthio-5-(3,4,4-trifluoro-3-butenylthio)-1,3,4-thiadiazole]: the pest or weed control at 5 ppm in the test on stunt nematode (setting [5]) is 56%; with root-knot nematode [2] (setting [6]), 50%; with root-knot nematode [2] (setting [7]), 81%; in the test on root-knot nematode [2] (setting [8]), 98%; in the test on root-knot nematode [3] (setting [9]), 100%; with root-knot nematode [3] (setting [10]), 98%. Further, in the test on root-knot nematode [3] (setting [11]), the pest or weed control at 5 ppm came out at 81%. Moreover, the pest or weed control at 2.5 ppm turned out to be 68% in the test on lesion nematode (Table 5, rate 2.5 ppm) and 99% in test [1] (setting [13]). The pest or weed control at 0.625 ppm in test [1] (setting [4]) was 99%. The pest or weed control at 1.25 ppm in test [1] was determined as 99%. Besides, the pest or weed control at 0.312 ppm in test [1] was determined as 95%.

In the case of `CC(C)Sc1nnc(SCCC(F)=C(F)F)s1` [Compound 30, 2-(1-methylethylthio)-5-(3,4,4-trifluoro-3-butenylthio)-1,3,4-thiadiazole], the pest or weed control at 5 ppm in the test on stunt nematode (setting [5]) is 66%; in the test on root-knot nematode [2] (setting [7]) it was 100%; with root-knot nematode [2] (setting [8]) it was 99%; in the test with root-knot nematode [2] (setting [14]), 17%; with root-knot nematode [3] (setting [9]) it was 98%; in the test with root-knot nematode [3] (setting [10]), 97%. In addition, in the test with root-knot nematode [3] (setting [11]), the pest or weed control at 5 ppm worked out at 83%. Moreover, the pest or weed control at 2.5 ppm with lesion nematode (Table 5, rate 2.5 ppm) worked out at 75%; in test [1] (setting [13]), 100%. In addition, the pest or weed control at 0.312 ppm in test [1] (setting [12]) worked out at 97%. Besides, the pest or weed control at 0.625 ppm in test [1] (setting [4]) turned out to be 99%. Moreover, the pest or weed control at 1.25 ppm in test [1] amounted to 99%.

As to `FC(F)=C(F)CCSc1nnc(SCc2ccccc2F)s1` [Compound 34, 2-(2-fluorophenylmethylthio)-5-(3,4,4-trifluoro-3-butenylthio)-1,3,4-thiadiazole], the pest or weed control at 5 ppm in the test on root-knot nematode [2] (setting [6]) is 8%; with root-knot nematode [2] (setting [7]), 67%; in the test with root-knot nematode [2] (setting [8]), 98%. The inhibition (usually the percentage by which the read-out fell short of the control) at 5 ppm in the test on Caenorhabditis elegans (Table 9 screen, 5 ppm, read-out: Percent Inhibition of Reproduction) worked out at 100%. Besides, the mortality (in general, the percentage killed) at 5 ppm with Caenorhabditis elegans (Table 9 screen, 5 ppm, read-out: Percent Mortality) was determined as 25%; in the test with Caenorhabditis elegans (Table 10 evaluation, 5 ppm, read-out: Percent Mortality) it was 100%. Also, the inhibition at 1.25 ppm in the test with Caenorhabditis elegans (Table 10 evaluation, 1.25 ppm, read-out: Percent Inhibition of Reproduction) came out at 0%. In addition, the mortality at 1.25 ppm in the test on Caenorhabditis elegans (Table 10 evaluation, 1.25 ppm, read-out: Percent Mortality) came to 0%. Moreover, the inhibition at 2.5 ppm in the test on Caenorhabditis elegans (Table 10 evaluation, 2.5 ppm, read-out: Percent Inhibition of Reproduction) was determined as 100%. Also, the mortality at 2.5 ppm in the test with Caenorhabditis elegans (Table 10 evaluation, 2.5 ppm, read-out: Percent Mortality) stood at 100%. Also, the pest or weed control at 2.5 ppm with lesion nematode (Table 5, rate 2.5 ppm) came out at 52%; in test [1] (setting [13]) it was 100%. Besides, in test [1] (Table 2, Application Rate 0.078 ppm), the pest or weed control at 0.078 ppm was found to be 38%. The pest or weed control at 0.156 ppm in test [1] (Table 2, Application Rate 0.156 ppm) came to 64%. Besides, the pest or weed control at 0.312 ppm in test [1] (setting [12]) worked out at 86%. Moreover, in test [1] (setting [4]), the pest or weed control at 0.625 ppm is 99%. Also, the pest or weed control at 1.25 ppm in test [1] was determined as 99%.

Consider `FC(F)=C(F)CCSc1nnc(CCc2ccccc2)o1` [Compound 47, 2-(2-phenylethyl)-5-(3,4,4-trifluoro-3-butenylthio)-1,3,4-oxadiazole], for which the pest or weed control at 5 ppm with stunt nematode (setting [5]) turned out to be 35%; in the test with root-knot nematode [2] (setting [6]), 58%; with root-knot nematode [2] (setting [7]), 96%; in the test on root-knot nematode [2] (setting [8]), 98%; with root-knot nematode [3] (setting [9]), 96%; with root-knot nematode [3] (setting [10]), 25%. Moreover, the pest or weed control at 5 ppm in the test with root-knot nematode [3] (setting [11]) amounted to 0%. Further, the pest or weed control at 2.5 ppm with lesion nematode (Table 5, rate 2.5 ppm) turned out to be 69%; in test [1] (setting [13]), 100%. Besides, the pest or weed control at 1.25 ppm in test [1] came out at 96%. The pest or weed control at 0.312 ppm in test [1] is 95%. In test [1], the pest or weed control at 0.625 ppm is 95%.

With `FC(F)=C(F)CCSc1nnc(-c2ccc(Br)cc2)o1` [Compound 49, 2-(4-bromophenyl)-5-(3,4,4-trifluoro-3-butenylthio)-1,3,4-oxadiazole], the pest or weed control at 5 ppm is 58% in the test on stunt nematode (setting [5]), 8% in the test with root-knot nematode [2] (setting [6]), 71% in the test on root-knot nematode [2] (setting [7]) and 99% with root-knot nematode [2] (setting [8]). Further, in test [1] (setting [12]), the pest or weed control at 0.312 ppm came out at 98%. In addition, in test [1] (setting [4]), the pest or weed control at 0.625 ppm was 100%. Moreover, in test [1], the pest or weed control at 1.25 ppm is 100%. Further, the pest or weed control at 2.5 ppm in test [1] (setting [13]) worked out at 100%.

On to `FC(F)=C(F)CCSc1nnc(-c2ccc(F)cc2)o1` [Compound 50, 2-(4-fluorophenyl)-5-(3,4,4-trifluoro-3-butenylthio)-1,3,4-oxadiazole], for which the pest or weed control at 5 ppm was 53% in the test with stunt nematode (672 h; Table 4a; rate 5 ppm; read-out: Percent Control), 71% with root-knot nematode [2] (setting [7]), 98% in the test on root-knot nematode [2] (setting [8]) and 33% in the test with root-knot nematode [2] (setting [14]). The pest or weed control at 0.312 ppm in test [1] (setting [12]) was determined as 78%. For the same molecule, the pest or weed control at 0.625 ppm in test [1] (setting [4]) worked out at 99%. The pest or weed control at 1.25 ppm in test [1] is 99%. Further, the pest or weed control at 2.5 ppm in test [1] (setting [13]) was determined as 100%.
